# Assay results from a melting point compilation (Tetko et al.; mined from patent text by program, amines drawn as free bases though some values may be those of a salt).
row,Compound,melting point [°C]
1,Cn1cc(S(=O)(=O)Cl)c(=O)c2cc(F)c(Cl)cc21,> 300
2,Cc1ccc([N+](=O)[O-])cc1Nc1nccc(-c2cncnc2)n1,200 to 203
3,O=C(Nc1ccc(C(F)(F)F)cc1)NC(Cc1ccc(C(F)(F)F)cc1)C(O)c1ccc(F)cc1 (stereo not given),160 to 161
4,CS(=O)(=O)Nc1ccccc1C(=O)C1CCCCC1,119 to 120
5,CCOC(=O)c1nc2ccccn2c1S(N)(=O)=O,166 to 168
6,COCOc1cc(F)ccc1-c1cc(-c2cccc([N+](=O)[O-])c2)c(C#N)c(NC(=O)c2ccno2)n1,161 to 162
7,CCN1CCc2ccc(Nc3ncc(Cl)c(N[C@@H]4CCCC[C@H]4NC(C)=O)n3)cc2CC1,248 to 250
8,O=[N+]([O-])c1ccc(N=Nc2ccc(O)c(CO)c2)cc1,178 to 179
9,Nc1ccccc1-c1cc2[nH]c3ccccc3c2c2c1C(=O)NC2=O,> 300
10,O=C1C(O)=C([N+](=O)[O-])C(=O)c2ccc(F)cc21,152
11,COc1cccc2c1sc1[nH]c(=O)c(=O)[nH]c12,> 300
12,COc1ccc2c(c1)c(Cc1nc(-c3ccc(F)cc3)cs1)c(C)n2C(=O)c1ccc(Cl)cc1,172 to 174
13,O=C(Nc1nnn[nH]1)c1csc(-c2ccco2)n1,275 to 277
14,CCOC(=O)Nc1ncc(-c2nc3ccccc3c(=O)n2-c2ccccc2OC)s1,263 to 264
15,Cc1c(C)c2c(c(C)c1NC(=O)CC(C)(C)C)C(c1ccc(C3OCCO3)cc1)CO2 (stereo not given),193 to 194
16,Cc1cc(C=Cc2ccccc2OCC(O)CNC(C)(C)C)on1 (stereo not given),83 to 85
17,COc1ccc(C(=O)c2c(F)cccc2F)cc1CC(=O)O,187
18,CC(=O)CS(=O)(=O)c1ccc(O)cc1,118 to 121
19,COc1ccc(-n2c(N)nc3ccccc32)cc1-c1ccco1,218 to 221
20,Nc1c(Br)cc(Br)n2nc(SCc3ccccc3)nc12,116 to 118

row,Compound,melting point [°C]
1,COCCc1nc2c(N)nc3ccccc3c2n1CC(C)C,168 to 170
2,CC(C)Cn1nc(-c2ccc(C(F)(F)F)cc2)cc(CO)c1=O,146
3,OCCN1CCN(c2cc(Cl)nc(-c3ccccc3)n2)CC1,103 to 105
4,Nc1cccc(-n2nnnc2S)c1,205
5,CCCc1c(C#N)c(-c2ccc(C#N)cc2)c(C)n1Cc1cnc(Cl)c(CO)c1,137 to 138
6,Cc1cc(SC(C)C)c(NC(=O)CCCCCCCSc2nc3ccccc3s2)c(SC(C)C)n1,107 to 108
7,COCCN1CCc2cc(Nc3ncc(Cl)c(Nc4ccccc4NS(C)(=O)=O)n3)c(OC)cc2CC1,107 to 112
8,CCN(CC)c1ccc(C=CC(=O)C=Cc2ccc(N(CC)CC)cc2)cc1,168
9,Cc1cc(CC(C)(C)NCC(O)c2cc(OCc3ccccc3)cc3c2OCC(=O)N3)ccc1F (stereo not given),228 to 230
10,O=S(=O)(Nc1cc(Cl)cc(Cl)c1)c1cc(S(=O)(=O)Nc2cc(Cl)cc(Cl)c2)c2cc(O)ccc2c1,122 to 124
11,O=c1cnc(-c2cccc(Cc3ccccc3)c2)nn1CC(F)(F)F,95 to 96
12,CCOC(=O)c1oc(I)nc1C,110 to 112
13,O=C(CSc1ccccc1)c1ccc2[nH]c3ncc(Cl)cc3c2c1,238 to 239
14,CSC(=C[N+](=O)[O-])NCCSCc1csc(NC(=N)N)n1,151 to 156
15,CN1CCN(NC(=O)c2cc([N+](=O)[O-])cc3c2OCCO3)CC1,210
16,CNC(=O)[C@H](Cc1ccc2ccccc2c1)NC(=O)C(CCOc1c(F)c(F)c(F)c(F)c1F)CC(=O)O (stereo not given in full),68 to 69
17,COC(=O)C(CC(=O)c1cc(Cl)c(C)c(Cl)c1)OC (stereo not given),75 to 78
18,CCOC(=O)CN1CCN(CC(O)COc2cc3c(Nc4cccc(Br)c4)ncnc3cc2OC)CC1 (stereo not given),118 to 122
19,NC(=O)c1c(N)sc2ccccc2c1=O,277 to 279
20,C[C@]12CCC(=O)C=C1CC[C@@H]2c1cn(Cc2ccccc2)nn1,122 to 125

row,Compound,melting point [°C]
1,O=C(NCCc1cccc(-c2nc(=O)c3ccccc3s2)n1)c1ccccc1,202 to 203
2,CCOCC(O)(COCC)C(Cc1ccc2ccccc2c1)[N+](=O)[O-] (stereo not given),87
3,NS(=O)(=O)c1cccc(C2CC2)c1,71.5 to 72.9
4,CCOC(=O)c1c(NC)c(N=O)c2ccccn12,156 to 157
5,c1ccc(C(OC2CCN(CCCCCNc3ccc4ncnn4n3)CC2)c2ccccc2)cc1,96 to 98
6,N#Cc1c(N2CCN(C(=O)c3cccs3)CC2)c2cscc2[nH]c1=O,263
7,Cc1nc2cnc3ccccc3c2n1CC(C)O (stereo not given),176 to 177
8,CCOC1Nc2c(ccc(C)c2O)C(=O)N2CCCC12 (stereo not given),155 to 157
9,CC(C)C(=O)n1cc(-c2ccc(Oc3ccccc3)cc2)c2c(N)ncnc21,160 to 161
10,O=C(CCNC(=O)C(Cc1ccccc1)CP(=O)(O)O)OCc1ccccc1 (stereo not given),122 to 123
11,CCOC1=CC2=CCC3C(CCC4(CC)C(=O)CC(OC(C)=O)C34)C2CC1 (stereo not given),189
12,O=C(Cl)C=Cc1cccc([N+](=O)[O-])c1,81 to 83.5
13,CS(=O)(=O)N1CCSc2ccccc2C1,98 to 100
14,N#Cc1ccc(-c2ccccc2OCC2CC2)[nH]c1=O,250 to 252
15,Cc1ccc2[nH]c3c(cc(-c4ccc(O)cc4)c(=O)n3C)c2c1,186
16,Cc1ccc(C(O[Si](C)(C)C(C)(C)C)C(N)=O)cc1 (stereo not given),108 to 110
17,Cc1cccc(NC(=O)NCC(=O)N(CC(=O)N(C)c2cccc(C)c2)c2ccccc2)c1,165
18,COc1cccc(OC2COc3ccc(OCc4ccc5ccccc5n4)cc3C2O)c1 (stereo not given),128 to 129
19,CC(C)(NC(=O)c1cc2c(n(CC3CCCCC3)c1=O)CCCCCC2)C(=O)N(N)S(C)(=O)=O,177 to 178
20,CC(C)(C)c1cc(C(c2ccc(F)cc2)N2CCCCC2)c(O)c(C(C)(C)C)c1 (stereo not given),135 to 136

# Next, values leading:
row,melting point [°C],Compound
1,159 to 161,O=C1NC(=O)C(=Cc2ccc(CCSc3ccccc3)cc2)S1
2,107 to 108,CC(C)OCc1cc2ccccc2oc1=Nc1ccccc1
3,233 to 237,O=c1ccc(-c2ccc(OC3CCN(C4CCCC4)CC3)nc2)n[nH]1
4,116 to 117,CN(C)C(=O)c1ccc([N+](=O)[O-])cc1Cl
5,65 to 70,O=C(CN1C(=O)CC1SCc1ccccc1)NCCCCCCc1ccccc1 (stereo not given)
6,240,CCCCc1nc2cc(Cl)c(Cl)c(C(=O)O)c2n1Cc1ccccc1Cl
7,170 to 171,CCOC(=O)C1NCc2[nH]c3cccc(OCc4ccccc4)c3c2C1COC (stereo not given)
8,186 to 189,CC1(C)Oc2cc3nonc3cc2C(N2CCC(O[N+](=O)[O-])CC2=O)C1O (stereo not given)
9,201,CCCC1=C(C#N)C(c2cccnc2)c2c[nH]nc2N1 (stereo not given)
10,207,CCOC(=O)C1=C(COCC2=CC(=O)N=N2)NC(C)=C(C(=O)OC)C1c1ccccc1Cl (stereo not given)
11,168 to 171,Cc1cc(N2CCN(c3c(C)c(C)c4c(c3C)CC(C)(C)O4)CC2)ccc1Cl
12,132 to 133,O=C1NCCc2c(OCCCCl)cccc21
13,143 to 145,COc1cc(-c2cc(C(F)(F)F)nn2-c2ccc(S(N)(=O)=O)cc2)ccc1-c1cocn1
14,202 to 204,O=C1C(=O)c2ccccc2C2=C1SCC(CN1CCC3(CC1)OCCO3)O2 (stereo not given)
15,127 to 130,COc1ccc(C(O)C(=O)c2ccccc2)cc1F (stereo not given)
16,130 to 132,CCCCCCCCCC1C=CC(Oc2ccc(C(=O)O)o2)=C2N=C3CCCCC3=C21 (stereo not given)
17,222 to 224,Cc1ccc2ccccc2c1C(=O)/C=C/c1ncn(C(c2ccccc2)(c2ccccc2)c2ccccc2)c1C
18,150 to 152,CC(=O)c1ccc(NCCCN2CCC(c3noc4cc(F)ccc34)CC2)c(O)c1
19,58 to 60,CCCSc1nc(-c2ccc(OC)cc2)c(-c2ccc(OC)cc2)s1
20,99,O=C1CCC2CC(c3ccccc3)c3cccc1c32 (stereo not given)

row,melting point [°C],Compound
1,214 to 215,CC1(C)CC(NC(=O)c2cc(Cl)cc(NC=O)c2O)CC(C)(C)C1
2,152 to 153,COc1cccc2c(CN3CC=C(/C=C/c4ccccc4)CC3)coc12
3,144 to 148,CCOC(=O)c1[nH]cc2c1NC1=C(C(=O)CCC1)C2c1ccc(Sc2nc3ccc(F)c(F)c3[nH]2)o1 (stereo not given)
4,64,COc1ccc2c(c1OCc1ccccc1)CCCC2=O
5,116 to 117,CC(=O)c1ccc(OCCCN2CCC(C(O)(c3ccc(F)cc3)c3ccc(F)cc3)CC2)c(C)c1
6,233 to 236,CCOC(=O)C=Cc1nc(-c2ccc(=O)n(C(C)C)n2)c(-c2ccccc2)nc1N
7,131 to 135,O=C1c2ccccc2C(=O)N1CC1Cc2ccc3c(c2O1)CCC3 (stereo not given)
8,106 to 116,CCOC(=O)C1=CC(=NO)[C@@H](NC(C)=O)[C@@H]2OC(C)(C)O[C@H]12
9,192 to 193,CCOc1ccc(C(C)=O)cc1S(=O)(=O)NC(=O)Nc1nc(OC)cc(OC)n1
10,103 to 105,CCCCCCC1=CC(=C(Br)Br)NC1=O
11,218 to 220,Cc1oc(-c2ccccc2)nc1CCOc1ccc(C[C@@H](C(=O)O)N2CCN(c3ccccc3)CC2)cc1
12,71 to 73,CCN(CC)C(=O)n1ccc(S(=O)(=O)c2c(C)cccc2OC)n1
13,> 300,O=c1ccc2c(O)cc(O)cc2[nH]1
14,120 to 122,COc1ccc(C(=O)Cc2c(Cl)cncc2Cl)c2c1OCC2CC(=O)OCc1ccccc1 (stereo not given)
15,215 to 218,COc1cc(C)nc(NC(=O)NS(=O)(=O)c2cccc3c2OS(=O)(=O)C(C)C3)n1 (stereo not given)
16,123 to 124,O=C1c2ccccc2C(O)N1CCBr (racemic)
17,135 to 136,Cc1cc(Oc2ccc(C(=O)C=CC(=O)O)cc2)ccc1Cl
18,93 to 94,Clc1ccc2c(ccn2C2=CCN(CCC3Cc4ccccc4C3)CC2)c1
19,137 to 139,CNC(=O)C1CCCN1S(=O)(=O)c1ccc(N2CCC3(CC2)OCCO3)cc1 (stereo not given)
20,120 to 122,CCCc1c(OCCCOc2cccc(N)c2C#N)ccc(C(C)=O)c1O
